Data reported in US8507537B2, “Trifluromethoxyphenyl-substituted tetramic acid derivatives pesticides and/or herbicides” (Bayer CropScience AG, priority 2006, dated 2013).

What was measured:
Format in all cases: in vivo
[1] = test system: green peach aphid (Myzus persicae); assay: Activity boost through ammonium/phosphonium salts, Myzus persicae test; conditions: 20 ppm active compound
Procedure: Activity Boost Through Ammonium/Phosphonium Salts
(§1) Solvent: 7 parts by weight of dimethylformamide
(§2) Emulsifier: 2 parts by weight of alkylaryl polyglycol ether
(§3) To produce a suitable preparation of active compound, 1 part by weight of active compound is mixed with the stated amounts of solvent and emulsifier, and the concentrate is diluted with water to the desired concentration. For application with ammonium salts or phosphonium salts these are added in a concentration of 1000 ppm a.i. to the spray liquor.
Bell pepper plants (Capsicum annuum) which are heavily infested by the Green peach aphid (Myzus persicae) are treated with the active compound preparation of the desired concentration by spraying to runoff point. After the desired period of time, the kill in % is determined. 100% means that all animals have been killed; 0% means that none of the animals have been killed.

[2] = test system: cotton aphid (Aphis gossypii); assay: Activity boost through ammonium/phosphonium salts, Aphis gossypii test
Procedure: as §1, §2
as §3, with “diluted with emulsifier-containing water to” for “diluted with water to”
(§4) Cotton plants (Gossypium hirsutum) heavily infested by the cotton aphid (Aphis gossypii) are sprayed to runoff with the preparation of active compound at the desired concentration.
(§5) After the desired period of time, the kill in % is determined. 100% means that all aphids have been killed; 0% means that none of the aphids have been killed.

[3] = test system: cotton aphid (Aphis gossypii); assay: Activity boost through ammonium/phosphonium salts in combination with penetration promoters, Aphis gossypii test; conditions: 4 ppm active compound
Procedure: as §1, §2
(§6) To produce a suitable preparation of active compound, 1 part by weight of active compound is mixed with the stated amounts of solvent and emulsifier, and the concentrate is diluted with emulsifier-containing water to the desired concentration. For application with ammonium salts or phosphonium salts and penetration promoters (rapeseed oil methyl ester 500 EW) these are in each case added in a concentration of 1000 ppm a.i. to the spray liquor.
as §4, §5

Summer wheat = assay: Greenhouse container trials with cereals, use of safeners (post-emergence herbicidal effect on crop)
Procedure: (§7) Post-Emergence Herbicidal Effect
Seeds of monocotyledonous and dicotyledonous weed plants and crop plants are placed in sandy loam soil in wood fibre pots or in plastic pots and are covered with earth and cultivated in a greenhouse and also, during the vegetation period, outdoors, outside of the greenhouse, under good growth conditions. 2 to 3 weeks after sowing, the trial plants are treated at the one- to three-leaf stage. The test compounds, formulated as wettable powders (WP) or liquids (EC), are sprayed onto the plants and the soil surface in various dosages, with a water application rate of 300 l/ha (converted) and with addition of wetting agent (0.2% to 0.3%). […]
(§8) If the testing is also to look at whether safeners can improve the tolerance of the crop plants for test substances, the following options are used for the application of the safener: • seeds of the crop plants are dressed with the safener substance prior to sowing (the amount of safener is stated as a percentage, based on the seed weight) • crop plants are sprayed with the safener, with a defined application rate per hectare, prior to application of the test substances (typically 1 day before the test substances are applied) • the safener is applied together with the test substance in the form of a tank mix (the amount of safener is reported in g/ha or as a proportion relative to the herbicide).
(§9) By comparing the effect of test substances on crop plants which have been treated with safener and without safener it is possible to assess the effect of the safener substance.
(§10) Greenhouse Container Trials with Cereals
(§11) Mefenpyr 1 Day Prior to Herbicide Application

Summer barley = assay: as above; conditions: without safener; for Summer barley observed (%): 28 days after application; for Summer barley observed (%) herbicidal effect: 10 days after application
Procedure: as §7
Seeds of monocotyledonous and dicotyledonous weed plants and crop plants are placed in sandy loam soil in wood fibre pots or in plastic pots and are covered with earth and cultivated in a greenhouse and also, during the vegetation period, outdoors, outside of the greenhouse, under good growth conditions. 2 to 3 weeks after sowing, the trial plants are treated at the one- to three-leaf stage. The test compounds, formulated as wettable powders (WP) or liquids (EC), are sprayed onto the plants and the soil surface in various dosages, with a water application rate of 300 l/ha (converted) and with addition of wetting agent (0.2% to 0.3%). 3 to 4 weeks after the trial plants have been treated, the effect of the products is rated visually in comparison to untreated controls (herbicidal effect in percent: 100% effect=plants have died, 0% effect=like control plants).
as §8, §9, §10, §11

[4] = test system: green peach aphid (Myzus persicae); assay: Activity boost through ammonium/phosphonium salts in combination with penetration promoters, Myzus persicae test; conditions: 20 ppm active compound
Procedure: Activity Boost Through Ammonium/Phosphonium Salts in Combination with Penetration Promoters
as §1, §2
as §6, with “with” for “with emulsifier-containing”, “ppm” for “ppm a.i.”
Bell pepper plants (Capsicum annuum) heavily infested by the green peach aphid (Myzus persicae) are sprayed to runoff with the preparation of active compound at the desired concentration. After the desired time, the kill in % is determined. 100% means that all of the animals have been killed; 0% means that no animals have been killed.

[5] = test system: rice brown planthopper (Nilaparvata lugens); assay: Nilaparvata lugens test (NILALU hydroponic treatment); conditions: concentration of 500 ppm after 7 d
Procedure: NILALU Hydroponic Treatment
• 78 parts by weight of acetone • 1.5 parts by weight of dimethylformamide Emulsifier: • 0.5 part by weight of alkylaryl polyglycol ether
To produce a suitable preparation of active compound, 1 part by weight of active compound is mixed with the stated amounts of solvents and emulsifier, and the concentrate is diluted with emulsifier-containing water to the desired concentration.
The active compound preparation is pipetted into water. The stated concentration refers to the amount of active compound per volume unit of water (mg/l=ppm); the infection with the rice brown planthopper (Nilaparvata lugens) is then carried out.
After the desired period of time, the effect in % is determined. 100% means that all rice planthoppers have been killed; 0% means that none of the rice planthoppers have been killed.

[6] = 20 ppm active compound, +AS (1000 ppm)
[7] = 20 ppm active compound, without AS
[8] = +RME + AS (in each case 1000 ppm)

## COC1CCC2(CC1)NC(=O)C(c1c(C)cc(OC(F)(F)F)cc1Cl)=C2O (single isomer, unassigned) [I-a-39]
[1]; +AS (1000 ppm)
  Kill rate/% after 6 days: 40%
[1]; without AS
  Kill rate/% after 6 days: 10%

## CCOC1CCC2(CC1)NC(=O)C(c1c(Br)cc(OC(F)(F)F)cc1Br)=C2O (single isomer, unassigned) [I-a-9]
[2]; [6]
  Kill rate/% after 6 days: 85%
[2]; [7]
  Kill rate/% after 6 days: 65%

## COC1CCC2(CC1)NC(=O)C(c1c(Br)cc(OC(F)(F)F)cc1Br)=C2O (single isomer, unassigned) [I-a-32]
[1]; +AS (1000 ppm)
  Kill rate/% after 6 days: 85%
[1]; without AS
  Kill rate/% after 6 days: 0%
[3]; +AS (1000 ppm)
  Kill rate/% after 6 days: 30%
[3]; +RME (1000 ppm)
  Kill rate/% after 6 days: 70%
[3]; [8]
  Kill rate/% after 6 days: 80%
[3]; without additive
  Kill rate/% after 6 days: 5%

## COC1CCC2(CC1)NC(=O)C(c1c(C)cc(C)cc1OC(F)(F)F)=C2O (single isomer, unassigned) [I-a-49]
Summer wheat; 10 days after application, 25 g of a.i./ha, without safener
  Summer wheat observed (%): 10%
Summer wheat; 10 days after application, 50 g of a.i./ha, without safener
  Summer wheat observed (%): 20%
Summer wheat; 10 days after application, 100 g of a.i./ha, without safener
  Summer wheat observed (%): 40%

## COC1CCC2(C1)NC(=O)C(c1c(C)cc(C)cc1OC(F)(F)F)=C2O (single isomer, unassigned) [I-a-50]
Summer wheat; 28 days after application, 12.5 g of a.i./ha, without safener
  Summer wheat observed (%): 10%
Summer wheat; 28 days after application, 25 g of a.i./ha, without safener
  Summer wheat observed (%): 40%
Summer wheat; 28 days after application, 50 g of a.i./ha, without safener
  Summer wheat observed (%): 60%
Summer wheat; 28 days after application, 100 g of a.i./ha, without safener
  Summer wheat observed (%): 70%
Summer barley; 12.5 g of a.i./ha
  Summer barley observed (%): 8%
Summer barley; 25 g of a.i./ha
  Summer barley observed (%): 30%
Summer barley; 50 g of a.i./ha
  Summer barley observed (%): 50%
Summer barley; 100 g of a.i./ha
  Summer barley observed (%): 60%

## CCOC1CCCC2(C1)NC(=O)C(c1c(C)cc(C)cc1OC(F)(F)F)=C2OC(C)=O (single isomer, unassigned) [(I-b-24)]
Summer wheat; 12.5 g of a.i./ha, 10 days after application, without safener
  Summer wheat observed (%) herbicidal effect: 30%
Summer wheat; 25 g of a.i./ha, 10 days after application, without safener
  Summer wheat observed (%) herbicidal effect: 40%
Summer wheat; 50 g of a.i./ha, 10 days after application, without safener
  Summer wheat observed (%) herbicidal effect: 40%
Summer wheat; 50 g of a.i./ha, 28 days after application, without safener
  Summer wheat observed (%) herbicidal effect: 20%
Summer wheat; 100 g of a.i./ha, 10 days after application, without safener
  Summer wheat observed (%) herbicidal effect: 40%
Summer wheat; 100 g of a.i./ha, 28 days after application, without safener
  Summer wheat observed (%) herbicidal effect: 20%
Summer barley; 12.5 g of a.i./ha
  Summer barley observed (%) herbicidal effect: 10%
Summer barley; 25 g of a.i./ha
  Summer barley observed (%) herbicidal effect: 20%
Summer barley; 50 g of a.i./ha
  Summer barley observed (%) herbicidal effect: 30%
Summer barley; 100 g of a.i./ha
  Summer barley observed (%) herbicidal effect: 30%

## COC1CCC2(CC1)NC(=O)C(c1c(Cl)cc(OC(F)(F)F)cc1Cl)=C2O (single isomer, unassigned) [I-a-29]
[2]; 4 ppm active compound, +AS (1000 ppm)
  Kill rate/% after 6 days: 70%
[2]; 4 ppm active compound, without AS
  Kill rate/% after 6 days: 5%
[2]; [6]
  Kill rate/% after 6 days: 85%
[2]; [7]
  Kill rate/% after 6 days: 70%
[4]; +AS (1000 ppm)
  Kill rate/% after 6 days: 70%
[4]; +RME (1000 ppm)
  Kill rate/% after 6 days: 95%
[4]; [8]
  Kill rate/% after 6 days: 100%
[4]; without additive
  Kill rate/% after 6 days: 0%

## O=C1NC2(CCOCC2)C(O)=C1c1cc(OC(F)(F)F)ccc1Br [I-a-4]
[5]
  efficacy: ≥ 80%

## COC1CCC2(CC1)NC(=O)C(c1c(C)cc(C)cc1OC(F)(F)F)=C2OC(C)=O (single isomer, unassigned) [(I-b-25)]
Summer wheat; 100 g of a.i./ha, 10 days after application, without safener (table of I-b-25)
  Summer wheat observed (%) herbicidal effect: 20%
